In patent US20220338473A1, “USE OF BENZYL ALCOHOL AS A HERBICIDE” (INNOVI, priority 2019, published 2022):

How the values were obtained:
Type in all cases: in vivo
Carnation [1] = assay: Foliar application (spraying) on potted plants; details: 8 g benzyl alcohol (400 L/Ha) in 16 g total (800 L/ha)
Procedure: (§1) Assays were carried out on different plants by foliar application (spraying) to evaluate the herbicide function, its foliar application mode and its speed of action.
(§2) The assays were carried out on potted plants. The application of the product is carried out with a trigger spray bottle which makes it possible to spray 1 g of product per spraying as microdroplets.
(§3) The plants were sprinkled with different quantities of water containing different quantities of pure benzyl alcohol (PanReac AppliChem—ITW Reagents). The untreated (control) plants are sprinkled with the same total quantity, but of water only.
(§4) The collapsing of the plant, the colour intensity of the plant and the diameter of the plant were measured in the following manner: • Collapsing of the plant: the collapsing was evaluated on a scale of 1 to 5. A score of 5 corresponds to the state of the plant habit at T0 and 1 corresponds to a total collapsing of the plant. • Colour intensity: the colour of the plant (leaves and flowers) is evaluated on a scale of 1 to 5. A score of 5 corresponds to the colour intensity of the plant at T0 and a score of 1 corresponds to a total discoloration of the plant (white or brown according to the type of plant). • Diameter of the plant: the diameter of the plant corresponds to the surface area occupied by the plant seen from above and is evaluated by a score of 1 to 5. A score of 5 corresponds to the diameter of the plant at T0 and a score of 1 corresponds to the size of the pot (or smaller than this).

Dahlia = assay: Foliar application (spraying) on potted plants; details: 2 g benzyl alcohol (100 L/Ha) in 20 g total (1000 L/ha)
Procedure: as §1, §2, §3, §4

Ivy = assay: Foliar application (spraying) on potted plants; details: 16 g benzyl alcohol (800 L/Ha) in 20 g total (1000 L/Ha)
Procedure: as §1, §2, §3, §4

Lobelia = assay: Foliar application (spraying) on potted plants; details: 6 g benzyl alcohol (300 L/Ha) in 6 g total (300 L/ha)
Procedure: as §1, §2, §3, §4

Pink petunia = assay: Foliar application (spraying) on potted plants; details: 0.4 g benzyl alcohol (20 L/Ha) in 4 g total (200 L/ha)
Procedure: as §1, §2, §3, §4

Purple horned pansy = assay: Foliar application (spraying) on potted plants; details: 1 g benzyl alcohol (50 L/Ha) in 12 g total (600 L/Ha)
Procedure: as §1, §2, §3, §4

Sage = assay: Foliar application (spraying) on potted plants; details: 4 g benzyl alcohol (200 L/Ha) in 10 g total (500 L/Ha)
Procedure: as §1, §2, §3, §4

White horned pansy = assay: Foliar application (spraying) on potted plants; details: 12 g benzyl alcohol (600 L/Ha) in 12 g total (600 L/Ha)
Procedure: as §1, §2, §3, §4

White petunia [2] = assay: Foliar application (spraying) on potted plants; details: 0.1 g benzyl alcohol (5 L/Ha) in 6 g total (300 L/Ha)
Procedure: as §1, §2, §3, §4

Carnation [3] = assay: Systemic application through contact with the above-ground parts (half of plant treated); details: potted, only one half sprayed, 4 g benzyl alcohol (200 L/Ha) in 4 g total (200 L/Ha)
Procedure: (§5) Assays were carried out on different plants by treatment on a fraction of the above-ground parts.
(§6) The assays were carried out on potted plants.
(§7) The systemic action was evaluated on several types of plants by treatment on a fraction of its above-ground parts.
(§8) The application of the product is carried out with a trigger spray bottle which makes it possible to spray 1 g of product per spraying, as microdroplets.
(§9) The treated plants are sprinkled on only one half, with different quantities of water comprising different quantities of pure benzyl alcohol (PanReac AppliChem—ITW Reagents). The untreated (control) plants are sprinkled with the same total quantity, but of water only.
(§10) The collapsing of the plant, the colour intensity and the diameter of the plant were measured as indicated in Example 1. The systemic effectiveness time was also measured in the following manner: • Systemic effectiveness time: 50% of the plant is initially treated with the product. The time necessary to see the first effects (systemically) appear on the part not treated (systemically) is determined.

Grass = assay: as above; details: potted, only one half sprayed, 16 g benzyl alcohol (800 L/Ha) in 20 g total (1000 L/Ha)
Procedure: as §5, §6, §7, §8, §9, §10

Horned pansy = assay: as above; details: potted, only one half sprayed, 0.1 g benzyl alcohol (5 L/Ha) in 12 g total (600 L/Ha)
Procedure: as §5, §6, §7, §8, §9, §10

Hypoestes = assay: as above; details: potted, only one half sprayed, 1 g benzyl alcohol (50 L/Ha) in 8 g total (400 L/Ha)
Procedure: as §5, §6, §7, §8, §9, §10

Osteospermum = assay: as above; details: potted, only one half sprayed, 2 g benzyl alcohol (100 L/Ha) in 2 g total (100 L/Ha)
Procedure: as §5, §6, §7, §8, §9, §10

White petunia [4] = assay: as above; details: potted, only one half sprayed, 10 g benzyl alcohol (500 L/Ha) in 16 g total (800 L/Ha)
Procedure: as §5, §6, §7, §8, §9, §10

OCc1ccccc1 [benzyl alcohol]
at 120 h: A: systemic effectiveness time (whole plant affected) (Horned pansy)
96 h: C: colour intensity (score and time): time to pass from score 5 (T0) to score 1 (Carnation [3])
168 h: D: diameter (score and time): time to pass from score 5 (T0) to score 1 (Grass) | B: collapsing (score and time): time to pass from score 5 (T0) to score 1 (Horned pansy) | D: diameter (score and time): time to pass from score 5 (T0) to score 1 (Horned pansy)
1 to 96 h: Collapsing of treated plant (score and time): time to pass from score 5 (T0) to score 1 (Ivy) | Diameter of treated plant (score and time): time to pass from score 5 (T0) to score 1 (Ivy) | Diameter of treated plant (score and time): time to pass from score 5 (T0) to score 1 (Pink petunia) | Collapsing of treated plant (score and time): time to pass from score 5 (T0) to score 1 (White petunia [2]) | Colour intensity of treated plant (score and time): time to pass from score 5 (T0) to score 1 (White petunia [2])
1 to 120 h: Diameter of treated plant (score and time): time to pass from score 5 (T0) to score 1 (White petunia [2])
120 h: D: diameter (score and time): time to pass from score 5 (T0) to score 1 (Carnation [3]) | C: colour intensity (score and time): time to pass from score 5 (T0) to score 1 (Grass) | B: collapsing (score and time): time to pass from score 5 (T0) to score 1 (Hypoestes) | C: colour intensity (score and time): time to pass from score 5 (T0) to score 1 (Hypoestes) | C: colour intensity (score and time): time to pass from score 5 (T0) to score 1 (Osteospermum)
at 24 h: A: systemic effectiveness time (whole plant affected) (White petunia [4])
48 h: B: collapsing (score and time): time to pass from score 5 (T0) to score 1 (White petunia [4]) | C: colour intensity (score and time): time to pass from score 5 (T0) to score 1 (White petunia [4]) | D: diameter (score and time): time to pass from score 5 (T0) to score 1 (White petunia [4])
at 96 h: A: systemic effectiveness time (whole plant affected) (Grass) | A: systemic effectiveness time (whole plant affected) (Hypoestes) | A: systemic effectiveness time (whole plant affected) (Osteospermum)
1 to 48 h: Diameter of treated plant (score and time): time to pass from score 5 (T0) to score 1 (Carnation [1]) | Collapsing of treated plant (score and time): time to pass from score 5 (T0) to score 1 (Dahlia) | Colour intensity of treated plant (score and time): time to pass from score 5 (T0) to score 1 (Ivy) | Colour intensity of treated plant (score and time): time to pass from score 5 (T0) to score 1 (Pink petunia) | Collapsing of treated plant (score and time): time to pass from score 5 (T0) to score 1 (Purple horned pansy) | Diameter of treated plant (score and time): time to pass from score 5 (T0) to score 1 (Purple horned pansy) | Collapsing of treated plant (score and time): time to pass from score 5 (T0) to score 1 (Sage) | Diameter of treated plant (score and time): time to pass from score 5 (T0) to score 1 (Sage)
at 72 h: A: systemic effectiveness time (whole plant affected) (Carnation [3])
86 h: B: collapsing (score and time): time to pass from score 5 (T0) to score 1 (Carnation [3])
1 to 24 h: Collapsing of treated plant (score and time): time to pass from score 5 (T0) to score 1 (Carnation [1]) | Colour intensity of treated plant (score and time): time to pass from score 5 (T0) to score 1 (Carnation [1]) | Colour intensity of treated plant (score and time): time to pass from score 5 (T0) to score 1 (Dahlia) | Collapsing of treated plant (score and time): time to pass from score 5 (T0) to score 1 (Lobelia) | Colour intensity of treated plant (score and time): time to pass from score 5 (T0) to score 1 (Lobelia) | Diameter of treated plant (score and time): time to pass from score 5 (T0) to score 1 (Lobelia) | Colour intensity of treated plant (score and time): time to pass from score 5 (T0) to score 1 (Purple horned pansy) | Colour intensity of treated plant (score and time): time to pass from score 5 (T0) to score 1 (Sage)
144 h: B: collapsing (score and time): time to pass from score 5 (T0) to score 1 (Grass) | C: colour intensity (score and time): time to pass from score 5 (T0) to score 1 (Horned pansy) | D: diameter (score and time): time to pass from score 5 (T0) to score 1 (Hypoestes) | B: collapsing (score and time): time to pass from score 5 (T0) to score 1 (Osteospermum) | D: diameter (score and time): time to pass from score 5 (T0) to score 1 (Osteospermum)
1 to 72 h: Diameter of treated plant (score and time): time to pass from score 5 (T0) to score 1 (Dahlia) | Collapsing of treated plant (score and time): time to pass from score 5 (T0) to score 1 (Pink petunia)
1 to 6 h: Collapsing of treated plant (score and time): time to pass from score 5 (T0) to score 1 (White horned pansy) | Colour intensity of treated plant (score and time): time to pass from score 5 (T0) to score 1 (White horned pansy) | Diameter of treated plant (score and time): time to pass from score 5 (T0) to score 1 (White horned pansy)
